Measured values from ChEMBL document CHEMBL5678810.

How the values were obtained:
[1] = molecular target: Cyclin-dependent kinase-like 3 (Homo sapiens) (UniProt Q8IVW4); experiment: Inhibition of T7 bacteriophage fused human CDKL3 at 10 uM by KINOMEscan analysis relative to control; values are per cent of control
[2] = molecular target: Protein kinase C epsilon type (Homo sapiens) (UniProt Q02156); experiment: Inhibition of T7 bacteriophage fused human PRKCE at 10 uM by KINOMEscan analysis relative to control
[3] = system: Phosphatidylinositol 4,5-bisphosphate 3-kinase catalytic subunit alpha isoform (Homo sapiens), P42336 [C420R]; experiment: Inhibition of T7 bacteriophage fused human PIK3CA C420R mutant at 10 uM by KINOMEscan analysis relative to control
[4] = molecular target: Uncharacterized serine/threonine-protein kinase SBK3 (Homo sapiens) (UniProt P0C264); experiment: Inhibition of T7 bacteriophage fused human SgK110 at 10 uM by KINOMEscan analysis relative to control
[5] = molecular target: Serine/threonine-protein kinase BRSK1 (Homo sapiens) (UniProt Q8TDC3); experiment: Inhibition of T7 bacteriophage fused human BRSK1 at 10 uM by KINOMEscan analysis relative to control
[6] = molecular target: Fibroblast growth factor receptor 1 (Homo sapiens) (UniProt P11362); experiment: Inhibition of T7 bacteriophage fused human FGFR1 at 10 uM by KINOMEscan analysis relative to control; values are per cent of control
Fibroblast growth factor receptor 1 (Homo sapiens), sequence (P11362 22-822 limits assumed): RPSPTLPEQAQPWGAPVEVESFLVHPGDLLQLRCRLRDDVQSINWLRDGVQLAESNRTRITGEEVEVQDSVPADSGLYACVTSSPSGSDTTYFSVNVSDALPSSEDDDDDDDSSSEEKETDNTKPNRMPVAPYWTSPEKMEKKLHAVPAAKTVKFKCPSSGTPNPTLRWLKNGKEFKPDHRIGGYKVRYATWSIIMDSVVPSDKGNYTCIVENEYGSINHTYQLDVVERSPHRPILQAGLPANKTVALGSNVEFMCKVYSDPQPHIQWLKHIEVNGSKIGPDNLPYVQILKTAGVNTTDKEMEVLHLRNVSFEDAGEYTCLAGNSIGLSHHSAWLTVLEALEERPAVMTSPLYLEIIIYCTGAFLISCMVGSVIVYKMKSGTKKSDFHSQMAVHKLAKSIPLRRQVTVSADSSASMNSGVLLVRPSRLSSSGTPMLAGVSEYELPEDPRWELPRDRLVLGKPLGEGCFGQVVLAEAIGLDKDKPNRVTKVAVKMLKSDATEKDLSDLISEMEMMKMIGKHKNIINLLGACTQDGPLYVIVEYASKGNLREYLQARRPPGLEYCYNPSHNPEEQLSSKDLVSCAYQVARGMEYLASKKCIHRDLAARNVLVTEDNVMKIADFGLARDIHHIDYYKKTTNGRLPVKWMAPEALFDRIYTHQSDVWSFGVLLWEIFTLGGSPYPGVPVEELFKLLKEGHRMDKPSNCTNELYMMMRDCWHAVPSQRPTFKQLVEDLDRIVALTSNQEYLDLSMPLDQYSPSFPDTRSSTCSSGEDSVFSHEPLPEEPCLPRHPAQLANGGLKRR

[7] = molecular target: Dual specificity mitogen-activated protein kinase kinase 7 (Homo sapiens) (UniProt O14733); experiment: Inhibition of T7 bacteriophage fused human MKK7 at 10 uM by KINOMEscan analysis relative to control
[8] = molecular target: Vascular endothelial growth factor receptor 3 (Homo sapiens) (UniProt P35916); experiment: Inhibition of T7 bacteriophage fused human FLT4 at 10 uM by KINOMEscan analysis relative to control
[9] = molecular target: Ephrin type-A receptor 7 (Homo sapiens) (UniProt Q15375); experiment: Inhibition of T7 bacteriophage fused human EPHA7 at 10 uM by KINOMEscan analysis relative to control; values are per cent of control
[10] = molecular target: Ephrin type-B receptor 1 (Homo sapiens) (UniProt P54762); experiment: Inhibition of T7 bacteriophage fused human EPHB1 at 10 uM by KINOMEscan analysis relative to control; values are per cent of control
[11] = molecular target: Mitogen-activated protein kinase kinase kinase 2 (Homo sapiens) (UniProt Q9Y2U5); experiment: Inhibition of T7 bacteriophage fused human MAP3K2 at 10 uM by KINOMEscan analysis relative to control; values are per cent of control
[12] = molecular target: Serine/threonine-protein kinase N1 (Homo sapiens) (UniProt Q16512); experiment: Inhibition of T7 bacteriophage fused human PKN1 at 10 uM by KINOMEscan analysis relative to control
[13] = molecular target: Cyclin-dependent kinase 5 (Homo sapiens) (UniProt Q00535); experiment: Inhibition of T7 bacteriophage fused human CDK5 at 10 uM by KINOMEscan analysis relative to control
Cyclin-dependent kinase 5 (Homo sapiens), sequence (Q00535 whole entry, looked up, the tested form may be a part): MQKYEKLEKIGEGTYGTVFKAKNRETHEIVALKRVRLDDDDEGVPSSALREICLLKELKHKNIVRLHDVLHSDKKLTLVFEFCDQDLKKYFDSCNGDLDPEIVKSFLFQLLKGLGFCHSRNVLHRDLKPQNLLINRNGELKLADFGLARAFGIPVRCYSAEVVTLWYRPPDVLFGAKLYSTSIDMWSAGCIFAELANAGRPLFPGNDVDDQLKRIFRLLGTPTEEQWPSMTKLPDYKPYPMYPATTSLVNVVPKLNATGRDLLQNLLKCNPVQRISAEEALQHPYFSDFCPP

[14] = molecular target: Dual specificity mitogen-activated protein kinase kinase 6 (Homo sapiens) (UniProt P52564); experiment: Inhibition of T7 bacteriophage fused human MEK6 at 10 uM by KINOMEscan analysis relative to control; values are per cent of control
[15] = molecular target: Casein kinase II subunit alpha (Homo sapiens) (UniProt P68400); experiment: Inhibition of T7 bacteriophage fused human CSNK2A1 at 10 uM by KINOMEscan analysis relative to control
[16] = molecular target: Ribosomal protein S6 kinase alpha-5 (Homo sapiens) (UniProt O75582); experiment: Inhibition of T7 bacteriophage fused human C-terminal RPS6KA5 Kinase domain-2 at 10 uM by KINOMEscan analysis relative to control
Ribosomal protein S6 kinase alpha-5 (Homo sapiens), sequence (O75582 whole entry, looked up, the tested form may be a part): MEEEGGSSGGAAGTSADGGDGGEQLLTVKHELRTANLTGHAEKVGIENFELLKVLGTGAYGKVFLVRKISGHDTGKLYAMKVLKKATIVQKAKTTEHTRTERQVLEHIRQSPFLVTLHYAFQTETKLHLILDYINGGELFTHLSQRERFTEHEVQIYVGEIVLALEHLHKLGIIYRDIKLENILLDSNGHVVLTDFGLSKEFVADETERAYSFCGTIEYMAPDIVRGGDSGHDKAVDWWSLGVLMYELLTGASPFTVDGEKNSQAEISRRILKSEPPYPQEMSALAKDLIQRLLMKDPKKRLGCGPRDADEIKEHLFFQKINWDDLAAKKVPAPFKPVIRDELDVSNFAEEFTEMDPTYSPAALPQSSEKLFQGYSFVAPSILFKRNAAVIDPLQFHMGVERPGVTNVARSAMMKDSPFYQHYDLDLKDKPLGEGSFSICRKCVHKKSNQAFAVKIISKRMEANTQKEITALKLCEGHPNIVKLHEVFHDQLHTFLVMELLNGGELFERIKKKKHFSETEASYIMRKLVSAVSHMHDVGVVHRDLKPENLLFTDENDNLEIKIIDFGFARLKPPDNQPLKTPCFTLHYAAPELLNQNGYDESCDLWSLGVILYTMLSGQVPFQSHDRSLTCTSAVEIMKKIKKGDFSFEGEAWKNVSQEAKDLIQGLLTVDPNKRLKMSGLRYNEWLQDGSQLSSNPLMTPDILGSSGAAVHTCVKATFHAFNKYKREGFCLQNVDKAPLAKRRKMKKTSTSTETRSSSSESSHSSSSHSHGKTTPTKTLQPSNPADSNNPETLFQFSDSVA

[17] = molecular target: Ephrin type-A receptor 4 (Homo sapiens) (UniProt P54764); experiment: Inhibition of T7 bacteriophage fused human EPHA4 at 10 uM by KINOMEscan analysis relative to control
[18] = system: Phosphatidylinositol 4,5-bisphosphate 3-kinase catalytic subunit alpha isoform (Homo sapiens), P42336 [Q546K]; experiment: Inhibition of T7 bacteriophage fused human PIK3CA Q546K mutant at 10 uM by KINOMEscan analysis relative to control
[19] = molecular target: Mitogen-activated protein kinase kinase kinase kinase 5 (Homo sapiens) (UniProt Q9Y4K4); experiment: Inhibition of T7 bacteriophage fused human MAP4K5 at 10 uM by KINOMEscan analysis relative to control
[20] = molecular target: Serine/threonine-protein kinase LATS1 (Homo sapiens) (UniProt O95835); experiment: Inhibition of T7 bacteriophage fused human LATS1 at 10 uM by KINOMEscan analysis relative to control
[21] = molecular target: Serine/threonine-protein kinase STK11 (Homo sapiens) (UniProt Q15831); experiment: Inhibition of T7 bacteriophage fused human LKB1 at 10 uM by KINOMEscan analysis relative to control; values are per cent of control
[22] = molecular target: Myosin light chain kinase, smooth muscle (Homo sapiens) (UniProt Q15746); experiment: Inhibition of T7 bacteriophage fused human MYLK at 10 uM by KINOMEscan analysis relative to control; values are per cent of control
Myosin light chain kinase, smooth muscle (Homo sapiens), sequence (Q15746 whole entry, the tested form may be a part): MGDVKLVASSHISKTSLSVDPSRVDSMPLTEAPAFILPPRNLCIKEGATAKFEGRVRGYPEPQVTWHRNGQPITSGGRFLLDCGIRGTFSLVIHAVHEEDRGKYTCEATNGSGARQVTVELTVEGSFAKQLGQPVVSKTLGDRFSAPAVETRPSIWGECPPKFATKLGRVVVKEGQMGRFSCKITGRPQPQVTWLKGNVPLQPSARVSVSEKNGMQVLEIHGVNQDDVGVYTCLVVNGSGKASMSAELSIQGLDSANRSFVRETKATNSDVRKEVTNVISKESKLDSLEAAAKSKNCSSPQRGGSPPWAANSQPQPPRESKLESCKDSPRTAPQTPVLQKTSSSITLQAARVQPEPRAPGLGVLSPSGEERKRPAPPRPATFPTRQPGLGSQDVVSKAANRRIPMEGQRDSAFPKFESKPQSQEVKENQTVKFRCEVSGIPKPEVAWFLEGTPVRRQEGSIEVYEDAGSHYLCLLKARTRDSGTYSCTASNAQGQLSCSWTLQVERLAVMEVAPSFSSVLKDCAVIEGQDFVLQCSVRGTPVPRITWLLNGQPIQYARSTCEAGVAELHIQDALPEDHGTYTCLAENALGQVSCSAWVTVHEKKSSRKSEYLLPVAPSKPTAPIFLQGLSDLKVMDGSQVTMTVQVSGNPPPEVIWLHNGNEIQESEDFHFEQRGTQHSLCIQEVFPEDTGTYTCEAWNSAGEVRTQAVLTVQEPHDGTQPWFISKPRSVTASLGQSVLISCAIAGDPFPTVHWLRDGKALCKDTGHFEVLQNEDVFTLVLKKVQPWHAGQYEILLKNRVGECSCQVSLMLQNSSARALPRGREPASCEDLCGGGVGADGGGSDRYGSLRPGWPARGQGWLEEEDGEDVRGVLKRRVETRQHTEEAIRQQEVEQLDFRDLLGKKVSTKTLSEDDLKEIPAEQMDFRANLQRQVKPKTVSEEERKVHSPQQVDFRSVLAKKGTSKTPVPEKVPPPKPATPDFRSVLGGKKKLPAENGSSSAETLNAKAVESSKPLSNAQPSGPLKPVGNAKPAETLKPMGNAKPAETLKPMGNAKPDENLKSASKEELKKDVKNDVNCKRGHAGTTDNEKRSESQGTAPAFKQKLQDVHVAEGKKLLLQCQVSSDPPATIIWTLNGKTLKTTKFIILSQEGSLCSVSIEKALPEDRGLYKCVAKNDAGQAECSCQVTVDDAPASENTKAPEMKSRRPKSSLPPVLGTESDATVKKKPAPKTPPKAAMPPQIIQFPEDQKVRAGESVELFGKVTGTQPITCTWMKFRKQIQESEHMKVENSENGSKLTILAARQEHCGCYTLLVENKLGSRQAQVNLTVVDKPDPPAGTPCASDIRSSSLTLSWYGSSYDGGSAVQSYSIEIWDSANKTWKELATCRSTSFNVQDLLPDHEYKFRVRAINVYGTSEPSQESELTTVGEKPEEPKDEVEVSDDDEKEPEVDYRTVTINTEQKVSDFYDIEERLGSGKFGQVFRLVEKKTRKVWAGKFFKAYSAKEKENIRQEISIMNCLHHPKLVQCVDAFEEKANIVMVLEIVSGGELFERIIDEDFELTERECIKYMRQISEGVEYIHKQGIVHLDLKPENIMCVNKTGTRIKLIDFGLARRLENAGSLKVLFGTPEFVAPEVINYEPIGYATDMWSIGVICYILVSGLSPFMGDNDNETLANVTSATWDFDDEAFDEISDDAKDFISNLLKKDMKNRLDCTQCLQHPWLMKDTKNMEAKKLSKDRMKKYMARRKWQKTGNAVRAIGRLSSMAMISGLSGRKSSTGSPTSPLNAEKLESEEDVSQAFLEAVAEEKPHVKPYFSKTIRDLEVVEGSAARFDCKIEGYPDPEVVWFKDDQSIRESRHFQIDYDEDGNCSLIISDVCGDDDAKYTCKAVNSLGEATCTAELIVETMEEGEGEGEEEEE

[23] = molecular target: Mitogen-activated protein kinase kinase kinase 15 (Homo sapiens) (UniProt Q6ZN16); experiment: Inhibition of T7 bacteriophage fused human MAP3K15 at 10 uM by KINOMEscan analysis relative to control; values are per cent of control
Mitogen-activated protein kinase kinase kinase 15 (Homo sapiens), sequence (Q6ZN16 whole entry, the tested form may be a part): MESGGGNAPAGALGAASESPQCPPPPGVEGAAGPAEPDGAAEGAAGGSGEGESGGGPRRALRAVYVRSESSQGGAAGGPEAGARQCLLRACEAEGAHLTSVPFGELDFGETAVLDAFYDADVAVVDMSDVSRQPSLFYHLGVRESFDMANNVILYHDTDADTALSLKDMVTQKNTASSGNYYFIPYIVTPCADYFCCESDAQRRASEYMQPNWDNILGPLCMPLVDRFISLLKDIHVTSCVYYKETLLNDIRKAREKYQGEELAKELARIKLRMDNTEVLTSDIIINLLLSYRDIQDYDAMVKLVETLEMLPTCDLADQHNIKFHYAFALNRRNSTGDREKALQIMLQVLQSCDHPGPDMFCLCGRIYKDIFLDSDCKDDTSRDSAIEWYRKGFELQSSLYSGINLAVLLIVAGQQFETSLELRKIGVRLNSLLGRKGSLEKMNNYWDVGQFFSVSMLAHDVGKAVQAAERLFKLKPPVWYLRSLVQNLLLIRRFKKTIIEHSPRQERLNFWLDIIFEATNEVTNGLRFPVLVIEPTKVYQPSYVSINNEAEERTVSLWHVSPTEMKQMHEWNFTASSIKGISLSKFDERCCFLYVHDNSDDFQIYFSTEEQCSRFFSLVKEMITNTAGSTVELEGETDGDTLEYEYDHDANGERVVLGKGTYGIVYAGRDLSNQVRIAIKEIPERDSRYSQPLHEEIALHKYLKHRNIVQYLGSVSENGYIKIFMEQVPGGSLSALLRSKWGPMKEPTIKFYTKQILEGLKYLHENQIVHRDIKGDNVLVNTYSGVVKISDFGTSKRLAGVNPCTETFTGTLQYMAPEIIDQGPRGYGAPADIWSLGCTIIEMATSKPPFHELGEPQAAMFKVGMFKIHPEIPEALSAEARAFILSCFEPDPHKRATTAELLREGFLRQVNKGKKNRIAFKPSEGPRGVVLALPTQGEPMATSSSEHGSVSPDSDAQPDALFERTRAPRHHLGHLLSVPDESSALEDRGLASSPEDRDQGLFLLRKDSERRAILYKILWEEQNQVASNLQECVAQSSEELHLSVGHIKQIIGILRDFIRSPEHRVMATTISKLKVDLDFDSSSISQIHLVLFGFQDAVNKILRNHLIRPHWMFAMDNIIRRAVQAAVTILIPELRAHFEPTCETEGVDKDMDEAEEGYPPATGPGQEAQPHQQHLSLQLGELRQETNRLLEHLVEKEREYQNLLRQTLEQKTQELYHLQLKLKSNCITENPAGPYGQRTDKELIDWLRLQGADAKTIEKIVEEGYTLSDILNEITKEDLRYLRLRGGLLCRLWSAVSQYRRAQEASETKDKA

[24] = molecular target: Tyrosine-protein kinase JAK1 (Homo sapiens) (UniProt P23458); experiment: Inhibition of T7 bacteriophage fused human JAK1 JH1catalytic domain at 10 uM by KINOMEscan analysis relative to control
[25] = molecular target: Ephrin type-B receptor 6 (Homo sapiens) (UniProt O15197); experiment: Inhibition of T7 bacteriophage fused human EPHB6 at 10 uM by KINOMEscan analysis relative to control
[26] = system: Mast/stem cell growth factor receptor Kit (Homo sapiens), P10721 [V559D,V654A]; experiment: Inhibition of T7 bacteriophage fused human KIT V559D/V654A mutant at 10 uM by KINOMEscan analysis relative to control
[27] = molecular target: BMP-2-inducible protein kinase (Homo sapiens) (UniProt Q9NSY1); experiment: Inhibition of T7 bacteriophage fused human BIKE at 10 uM by KINOMEscan analysis relative to control
[28] = molecular target: Mitogen-activated protein kinase kinase kinase 5 (Homo sapiens) (UniProt Q99683); experiment: Inhibition of T7 bacteriophage fused human ASK1 at 10 uM by KINOMEscan analysis relative to control
[29] = molecular target: Insulin receptor-related protein (Homo sapiens) (UniProt P14616); experiment: Inhibition of T7 bacteriophage fused human INSRR at 10 uM by KINOMEscan analysis relative to control; values are per cent of control

COc1cc(N2CCC(N3CCN(C)CC3)CC2)ccc1Nc1ncc2c(n1)N(C)c1ccccc1C(=O)N2C
residual activity [1]: 83% | inhibition [2]: 100% | inhibition [3]: 89% | inhibition [4]: 62% | inhibition [5]: 81% | residual activity [6]: 86% | inhibition [7]: 100% | inhibition [8]: 100% | residual activity [9]: 97% | residual activity [10]: 98% | residual activity [11]: 97% | inhibition [12]: 100% | inhibition [13]: 81% | residual activity [14]: 83% | inhibition [15]: 100% | inhibition [16]: 92% | inhibition [17]: 89% | inhibition [18]: 91% | inhibition [19]: 100% | inhibition [20]: 100% | residual activity [21]: 96% | residual activity [22]: 8.7% | residual activity [23]: 69% | inhibition [24]: 100% | inhibition [25]: 31% | inhibition [26]: 100% | inhibition [27]: 100% | inhibition [28]: 100% | residual activity [29]: 97%
